Test results from US9056139B2, “Fatty acid-salicylate conjugates with enhanced therapeutic properties” (KEAN UNIVERSITY, priority 2012, dated 2015).

System: HT-29 human adenocarcinoma cells
Assay: Apoptosis induction in Human Adenocarcinoma cells (HT-29)
Type: cell-based
Settings: HT-29 cells, FIG. 18 and FIG. 19

## CC/C=C\C/C=C\C/C=C\C/C=C\C/C=C\C/C=C\CCC(=O)Oc1ccccc1C(=O)O [DHASPIR, 2-((4Z,7Z,10Z,13Z,16Z,19Z)-docosa-4,7,10,13,16,19-hexaenoyloxy)benzoic acid]
  pro-apoptotic effect: same pro-apoptotic effect as the DHA/acetyl salicylate combination
